Measurements: US20060270727A1, “Small molecule therapeutics and uses therefor” (priority 2005, published 2006)

Key:
[1] = test system: frataxin mRNA in GM15850 FRDA lymphoid cell line; test: qRT-PCR of frataxin mRNA, FRDA cell line; format: cell-based, human; conditions: for effect on frataxin mRNA levels, in words: GM15850 FRDA cell line, 7 days incubation
From the text: (§1) GAA Specific Polyamides Up Regulate Frataxin mRNA and Protein. To assess whether polyamides alleviate transcription inhibition caused by expanded GAA repeats in the frataxin gene, quantitative real time/reverse transcriptase PCR (qRT-PCR) was used to monitor frataxin mRNA levels in the GM15850 and GM15851 lymphoid cell lines described above; levels of glyceraldehyde 3-phosphate dehydrogenase (GAPDH) mRNA were used as an internal control for each RNA sample; see Example 8. No differences in GAPDH were found between the two cell lines. […] No changes in frataxin mRNA levels were observed on shorter incubation times.
Cell Culture. Epstein Barr virus transformed lymphoblast cell lines GM15850 from a FRDA patient (alleles with 650 and 1030 GAA repeats in the frataxin gene, from the Coriell Cell Repository, Camden, N.J.), and GM15851 from an unaffected sibling (normal range of repeats), were propagated in RMPI 1640 medium with 2 mM L-glutamine and 15% fetal bovine serum at 37° C. in 5% CO2. Cell growth and morphology were monitored by phase contrast microscopy and viability by trypan blue exclusion and an ATP assay (ApoSENSOR™, BioVision). Polyamides were added directly to the culture medium in PBS. Nuclear localization of the polyamides was verified by deconvolution microscopy, by methods well known in the art (see e.g., Dudouet et al., Chem. Biol., 2003, 10: 859-867).
(§2) Real-Time Quantitative RT-PCR. Real-time quantitative RT-PCR (qRT-PCR) analysis was performed essentially as previously described (Chuma, et al., 2003, Hepatology 37:198-207), using the following primers for the frataxin gene: […]
(§3) RNA was standardized by quantification of GAPDH mRNA (Pattyn et al., 2003, Nucleic Acids Res. 31:122-123), and all values are expressed relative to GAPDH. qRT-PCR was performed using iScript One-Step RT-PCR kit with SYBR green (Biorad). Statistical analysis was performed on three independent quantitative RT-PCR experiments for each RNA sample.

[2] = test system: frataxin mRNA in GM15851 normal lymphoid cell line; test: qRT-PCR of frataxin mRNA, normal cell line; format: cell-based, human
From the text: as §1
Cell Culture. […] Cell growth and morphology were monitored by phase contrast microscopy and viability by trypan blue exclusion and an ATP assay (ApoSENSOR™, BioVision). […]
as §2, §3

[3] = test system: sticky DNA in plasmid pRW4886, two tracts of (GAA)176; test: Sticky DNA disruption, EcoNI digestion and agarose gel; format: biochemical; conditions: 37° C., 1 hr
Protocol: Influence of Polyamides on Sticky DNA Conformation. Plasmid pRW4886, which contains two tracts of (GAA)176 (SEQ ID NO: ______) in a direct repeat orientation (Vetcher et al., 2002b, Id)., and forms sticky DNA, was treated with polyamides at concentrations of 0-50 μM at 37° C. for 1 hr. Restriction digestion with EcoNI following the polyamide incubation enabled visualization of the presence or absence of an EcoNI cleaved sticky DNA band that runs with decreased mobility compared to the linearized plasmid on 1% agarose gels. Quantitation was by densitometric analysis using Fluor Chem version 3.04 (Alpha Innotech Corp).
The capacity of sequence-specific polyamides to disrupt the intramolecular sticky DNA structure formed by GAA repeat tracts was investigated. Plasmids harboring the sticky DNA structure are visualized by gel electrophoresis after restriction endonuclease cleavage, by methods well known in the art. […] Plasmid pRW4886, which contains two tracts of (GAA)176 (SEQ ID NO: ______) in a direct repeat orientation (Vetcher et al., 2002b, Id.), was incubated with each of polyamides FA1, FA2, FA3 and FA4 at concentrations ranging from 0-50 μM. The polyamide-bound DNA was then digested with EcoNI and subjected to electrophoresis on 1% agarose gels to determine the amount of EcoNI cleaved sticky DNA retarded band present. Incubation of pRW4886 DNA with FA3 shifted the equilibrium from a maximum amount of sticky DNA to a complete loss of the EcoNI cleaved sticky DNA retarded band at a concentration of 50 nM. […] For FA1, a 1 μM concentration was needed to dissociate the DNA-DNA structure-forming region. […] Since sticky DNA inhibits transcription (Ohshima et al., Id.; Sakamoto et al., 2001, J. Biol. Chem. 276:27171-27177), and since the polyamides destabilize this conformation by shifting the structural equilibrium to duplex B-type DNA, it is highly likely that the increases in frataxin mRNA observed with polyamide FA1 are due to this structural transition.

Structure (SMILES) | frataxin mRNA as % of the level in the normal cell line ([1]; GM15850, 2 μM) [%] | range of fold increases of frataxin mRNA in numerous experiments ([1]; GM15850, 2 μM) [fold] | increase of frataxin mRNA level ([1]; GM15850, 2 μM, 7 days, relative to GAPDH) [fold] | effect on frataxin mRNA levels, in words [1] | time for frataxin mRNA to decrease to pre-treatment levels after removal of polyamide ([1]; after induction 7 days, transfer to fresh medium lacking polyamide) [h] | effect of higher concentrations or longer incubation on frataxin transcription ([1]; compared with 2 μM, 7-day incubation) | effect on frataxin mRNA levels, in words [2] | concentration needed to affect or dissociate sticky DNA [3] [µM]
CN(C)CCCNC(=O)CCNC(=O)c1nc(NC(=O)CCNC(=O)c2cc(NC(=O)c3nc(NC(=O)CCNC(=O)c4cc(NC(=O)c5nccn5C)cn4C)cn3C)cn2C)cn1C [FA1, ImPyβImPyβImβDp] | ≤ 45 | 2.0 to 3.6 | 2.5 | increased frataxin mRNA levels | 96 | Neither higher concentrations of FA1 nor longer incubations times increased frataxin transcription | did not change frataxin mRNA levels | 1
CN(C)CCCNC(=O)CCNC(=O)c1cc(NC(=O)CCNC(=O)c2nc(NC(=O)c3nc(NC(=O)CCNC(=O)c4cc(NC(=O)c5nccn5C)cn4C)cn3C)cn2C)cn1C [FA2, ImPyβImImβPyβDp] |  |  |  | modest increase in frataxin transcription |  |  | no change in frataxin mRNA | > 100
